Measurements reported in ChEMBL document CHEMBL3351512, “Studies on molecular properties prediction and histamine H3 receptor affinities of novel ligands with uracil-based motifs” (Eur J Med Chem, 2014).

Biological target: Histamine H3 receptor (Homo sapiens, UniProt Q9Y5N1)
Assay: Displacement of [3H]N-alpha-Methylhistamine from human recombinant H3 receptor expressed in HEK293 cells by competitive binding assay
Format: cell-based
Conditions: not given

Histamine H3 receptor (Homo sapiens, UniProt Q9Y5N1), sequence (Q9Y5N1 whole entry): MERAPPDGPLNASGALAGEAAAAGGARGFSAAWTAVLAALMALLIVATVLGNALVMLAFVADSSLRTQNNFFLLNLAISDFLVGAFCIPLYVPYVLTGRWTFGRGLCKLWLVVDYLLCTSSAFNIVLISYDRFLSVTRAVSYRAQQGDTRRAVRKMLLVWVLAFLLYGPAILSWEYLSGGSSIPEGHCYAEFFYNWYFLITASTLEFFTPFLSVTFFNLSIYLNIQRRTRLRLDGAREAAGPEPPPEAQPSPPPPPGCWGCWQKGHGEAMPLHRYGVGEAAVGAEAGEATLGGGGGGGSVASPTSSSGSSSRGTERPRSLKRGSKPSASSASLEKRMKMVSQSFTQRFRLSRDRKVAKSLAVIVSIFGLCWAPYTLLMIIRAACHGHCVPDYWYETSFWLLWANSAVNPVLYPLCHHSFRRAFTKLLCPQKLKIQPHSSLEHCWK

Row | IC50 [nM] | SMILES
1 | ≤ 50 | CCN1CCc2nc(OC3CCN(C4CCC4)CC3)ncc2C1=O

Same assay, conditions: read-out: Ki

Row | Ki [nM] | SMILES
2 | < 25 | O=c1cccnn1-c1ccc2nc(N3CC[C@@H](N4CCCCC4)C3)sc2c1

Same assay, conditions: read-out: pKi (converted)

Row | Ki [nM] | SMILES
3 | 1150 | O=C(c1ccccc1)n1c(=O)ccn(CCCN2CCCCC2)c1=O
4 | 31.6 | Cc1cn(Cc2ccc(OCCCN3CCCCC3)cc2)c(=O)n(C(=O)c2ccccc2)c1=O
5 | 50.1 | CC(C)(C)OC(=O)n1ccc(=O)n(Cc2ccc(OCCCN3CCCCC3)cc2)c1=O
6 | 28.8 | O=c1cc[nH]c(=O)n1Cc1ccc(OCCCN2CCCCC2)cc1

Further lines, the compound ahead of its results:

Row | SMILES | Ki [nM]
7 | CC(C)N1CCCN(C(=O)C2CCN(c3ccc(C(F)(F)F)nc3)CC2)CC1 | 0.126
8 | O=C(c1ccccc1)n1c(=O)ccn(Cc2ccc(OCCCN3CCCCC3)cc2)c1=O | 7.24
9 | Cc1c(C)n(Cc2ccc(OCCCN3CCCCC3)cc2)c(=O)n(C(=O)c2ccccc2)c1=O | 34.7
10 | Cc1cn(C(=O)OC(C)(C)C)c(=O)n(Cc2ccc(OCCCN3CCCCC3)cc2)c1=O | 46.8
11 | Cc1c(C)n(C(=O)OC(C)(C)C)c(=O)n(Cc2ccc(OCCCN3CCCCC3)cc2)c1=O | 38
12 | O=c1ccn(CCCN2CCCCC2)c(=O)[nH]1 | 7080
13 | O=c1ccn(Cc2ccc(OCCCN3CCCCC3)cc2)c(=O)[nH]1 | 12.9
14 | Cc1cn(Cc2ccc(OCCCN3CCCCC3)cc2)c(=O)[nH]c1=O | 7.08
15 | Cc1c(C)n(Cc2ccc(OCCCN3CCCCC3)cc2)c(=O)[nH]c1=O | 17.8
16 | Cc1c[nH]c(=O)n(Cc2ccc(OCCCN3CCCCC3)cc2)c1=O | 63.1

Biological target: Histamine H3 receptor (Rattus norvegicus, UniProt Q9QYN8)
Assay: Binding affinity to rat H3 receptor
Conditions: not given

Histamine H3 receptor (Rattus norvegicus, UniProt Q9QYN8), sequence (Q9QYN8 whole entry): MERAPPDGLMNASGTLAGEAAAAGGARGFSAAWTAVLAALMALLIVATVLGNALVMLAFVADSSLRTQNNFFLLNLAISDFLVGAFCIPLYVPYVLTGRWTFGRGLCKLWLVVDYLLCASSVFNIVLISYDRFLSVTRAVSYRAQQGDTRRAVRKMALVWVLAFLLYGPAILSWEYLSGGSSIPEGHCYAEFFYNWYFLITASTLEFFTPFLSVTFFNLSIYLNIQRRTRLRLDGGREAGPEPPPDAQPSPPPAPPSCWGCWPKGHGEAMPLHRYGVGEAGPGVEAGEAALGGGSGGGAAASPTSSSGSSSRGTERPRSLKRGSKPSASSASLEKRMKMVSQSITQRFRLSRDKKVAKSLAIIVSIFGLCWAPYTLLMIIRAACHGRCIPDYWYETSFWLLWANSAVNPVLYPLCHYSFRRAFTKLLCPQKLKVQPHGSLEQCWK

Row | Ki [nM] | SMILES
17 | < 100 | C[C@H]1CCCN1CCCOc1ccc(/C(CN2CCCCC2=O)=N/OC(C)(C)C)cc1
